Measurements reported in paper PMC12723328, “Designing Programmable Peptide Nucleic Acid‐based Nanovaccines for Anticancer Immune Activation” (Small (Weinheim an Der Bergstrasse, Germany), 2025).

Columns and labels:
[1] = Zeta potential in H2O (Malvern DLS zetasizer); type: physicochemical; settings: OVA8 or CpG 5 µM, mean ± SD, n = 3
Source text: (§1) The size and zeta potential of LPn[OVA8/CpG/LLP2A] in H2O were detected by Malvern DLS zetasizer with the equivalent concentration of OVA8 or CpG at 5 µΜ. The morphology of LPn[OVA8/CpG/LLP2A] was visualized by transmission electron microscope (TEM, 80 kV FEI Talos 120C).

[2] = system: co‐culture of RF33.70 cells and the activated BMDCs; experiment: IL-2 secretion from co-culture of pretreated BMDCs and RF33.70 cells (ELISA); type: cell-based, mouse; settings: BMDCs pretreated 16 h at 1 µM, co-culture with RF33.70 16 h, n = 3
Experimental: The differentiation of BMDC from bone marrow cells was performed as previously described.^[ [48] ^] 2 × 10^4 cells/well BMDCs were suspended in 200 µL medium without adding IL‐2 and IL‐4. BMDCs were treated with LPn[OVA8/CpG/LLP2A] containing 1 or 2 µM of OVA8 for 16 h. Each group contains approximately equivalent concentrations of CpG and OVA8 based on the data in Table S1 (Supporting Information). After that, the cells were centrifuged at 320 g for 5 min to remove the uninternalized drugs. Then the BMDC cells were resuspended in RPMI medium and were co‐incubated with 10 × 10^4 cells/well of RF33.70 cells for another 16 h. After that, the medium supernatant was collected. The IL‐2 concentration was measured by IL‐2 Mouse ELISA Kit (Thermo Fisher).
For the blocking experiment, BMDC cells were pre‐incubated with an excess of LLP2A‐P4 (100 µM) for 1 h. Then the cells were washed three times with PBS, before the treatment of 1 µM LP11[OVA8/CpG/LLP2A] for 16 h. After that, the cells were washed three times with PBS to get rid of the uninternalized drugs, followed by co‐culturing with RF33.70 cells. The IL‐2 level was quantified by ELISA as mentioned above.

[3] = Hydrodynamic size by DLS (Malvern zetasizer) in water; type: physicochemical; settings: in H2O, OVA8 or CpG 5 µM, mean ± SD, n = 3
Experimental: The size and the dispersity of each of the three nanoconstructs in water were determined by Malvern zetasizer. […] (195.1 nm ± 61.1). […] To better understand how PVN nanoparticles are formed, we used LP11[OVA8/CpG/LLP2A] as an example and analyzed the hydrodynamic size, morphology, and spatial distribution of its components in various LP11‐based incomplete PVNs. It is well‐known that Class A CpG ODNs can self‐assemble into nanosized multimers because of their palindromic and poly‐guanine (G) tails.^[ [19], [21], [22] ^] […] To determine whether G‐quadruplex structures formed in the CpG ODN nanoclusters, we used nuclear magnetic resonance (NMR) to detect the CpG structure. […] Furthermore, hybridization with CpG, P3‐OVA8, and LLP2A‐P4 payloads increased the size of the final nanoparticle to 132.6 ± 71.7 nm.
as §1

Row | Substance | zeta potential [1] | IL‐2 production [2] | average hydrodynamic size [3]
1 | CpG: Class A CpG oligonucleotide, toll‐like receptor 9 agonist; 5′ ggGGTCAACGTTGAgggggg 3′, lowercase phosphorothioate (DNA GGGGTCAACGTTGAGGGGGG; DNA, linkages s2 o12 s5 (s phosphorothioate, o phosphodiester), methylation of C not given here; further chemistry not fully specified) | −24.3 ± 13.3 mV | barely induced | 62.3 ± 14.2 nm
2 | TAC‐K‐SIINFEKL [P3‐OVA8] | ~0 mV | – | –
3 | CCCCGTATGCA [LP11] | ~0 mV | barely induced | –
